For 79 compounds, viability results are on record in paper PMC12040169 (PLOS Biology, 2025).

Each structure is given as a SMILES string.

One series in a line: in vitro. The note with it: human, hela cells, % viability.
One may read the viability as a read-out of living cells in per cent, often relative to untreated cells. As for `O=S(=O)(c1ccccc1)N(CC(F)(F)F)c1ccc(C(O)(C(F)(F)F)C(F)(F)F)cc1` [CBK024768], the viability at 28.5 h, 10 µM amounted to 121%.

For the compound `CC(C)c1ccc(/C=C/C(=O)NCC2COc3ccccc3O2)cc1` (stereo not shown) [CBK149619], the viability at 28.5 h, 10 µM amounted to 120%. Regarding `Cc1ccc(NS(=O)(=O)c2cc(C(=O)N3CCN(C)CC3)ccc2C)cc1` [CBK268577], the viability at 28.5 h, 10 µM turned out to be 92.5%.

For the compound `CCC(CN1CCN(C)CC1)NC(=O)C1(c2ccc(F)cc2)CC1` (stereo not shown) [CBK282785], the viability at 28.5 h, 10 µM was 104%. Still for that read-out and setting: the figure for `COc1cc(C=CC(=O)O)ccc1OCC(=O)N1CCN(CC(=O)NC(C)(C)C)CC1` [CBK296987] is 114%; for `COc1ccc(OC)c(NC(=O)c2cnc3scc(C)n3c2=O)c1` [CBK287462] it is 90.5%; for `COc1ccc(C(=O)NC(NCc2ccco2)C(Cl)(Cl)Cl)cc1` (stereo not shown) [CBK262279] it is 119%.

With `Cc1nn(C)c(Oc2cccc(C(F)(F)F)c2)c1C(=O)O` [CBK000324], the viability at 28.5 h, 10 µM was determined as 102%. On the same count and under the same terms, in the case of `CC(=O)N1CCCC(c2nc(-c3ccncc3)ncc2-c2ccccc2)C1` (stereo not shown) [CBK291110] it was 82.2%. Regarding `NC(=O)C1CCN(C2CC(=O)N(c3cccc([N+](=O)[O-])c3)C2=O)CC1` (stereo not shown) [CBK265555], the viability at 28.5 h, 10 µM came out at 105%. Still for that read-out and setting: the figure for `O=C1CC(c2ccccc2)c2c(c3ccccc3[nH]c2=O)O1` (stereo not shown) [CBK288237] is 112%; for `Cc1cc2ccccc2n1CCC(=O)NC1CCCOC1` (stereo not shown) [CBK283152] it is 91.1%; for `CC(C)COc1ccc(-c2nonc2NC(=O)c2cccs2)cc1` [CBK299822] it is 103%. Same read-out and setting: in the case of `COc1cccc(C2C(C(=O)c3ccc(Cl)cc3)=C(O)C(=O)N2CCN2CCOCC2)c1` (stereo not shown) [CBK264901] it was 90%; in that of `CC(=O)Nc1c(O)nc(SCC(=O)Nc2ccc(Cl)cc2)[nH]c1=O` [CBK266214], 106%; in that of `CCOC(=O)C1=c2s/c(=C\c3cccnc3)c(=O)n2C(N)=C(C#N)C1c1cccnc1` (stereo not shown) [CBK262549], 107%. On the same count and under the same terms, the figure for `CNC(=O)c1ccc(-c2ccc(C)c(C)c2)nc1NCCOC` [CBK105999] is 96.6%; for `Clc1ccc(-c2nc(C3CCN(CCc4ccccc4)CC3)n3ccccc23)cc1` [CBK035316] it is 90.7%; for `Fc1cccc(-c2nc3cnccn3c2NCc2ccco2)c1` [CBK282323] it is 93.5%. Turning to `O=C(CN1CCCC1)N1CCC(c2cccc(Cc3ccc(C(F)(F)F)cc3)n2)CC1` [CBK286215], the viability at 28.5 h, 10 µM worked out at 106%.

For `O=C(O)c1ccc(S(=O)(=O)Nc2ccc(OC3CCCC3)cc2)cc1` [CBK296658], the viability at 28.5 h, 10 µM came out at 110%. Still for that read-out and setting: in the case of `COc1ccc(OC)c(NC(=O)CC2NCCNC2=O)c1` (stereo not shown) [CBK266477] it was 95.9%. On the same count and under the same terms, the figure for `COc1ccc2cc(COC(=O)c3ccc([S+](C)[O-])cc3)c(Cl)nc2c1` (stereo not shown) [CBK298267] is 99.5%. Still for that read-out and setting: the figure for `COc1cc2oc(=O)c(CC(=O)N[C@@H](CC(C)C)C(=O)O)c(C)c2cc1Cl` [CBK286772] is 104%.

In the case of `O=C(CSc1nc2ccccc2c(=O)[nH]1)Nc1ccc(Cl)c(C(=O)O)c1` [CBK268246], the viability at 28.5 h, 10 µM came to 103%. `O=C(OCC(=O)c1cccc2ccccc12)c1cc2ccccc2cc1O` [CBK265526]: the viability at 28.5 h, 10 µM stood at 102%. Still for that read-out and setting: the figure for `OCCC1CCCCN1c1cncc(-c2cccc(Cl)c2)n1` (stereo not shown) [CBK037906] is 108%; for `Cc1ccc(NS(=O)(=O)c2ccc(OCC(=O)Nc3ccccc3C(F)(F)F)cc2)cc1` [CBK269120] it is 86.4%. On the same count and under the same terms, in the case of `c1ccc2sc(SCc3nc4c5c6c(sc5ncn4n3)CCCC6)nc2c1` [CBK262923] it was 92.5%; in that of `CCN1CCN(C(=O)CN(c2ccccc2)S(=O)(=O)N(C)C)CC1` [CBK268222], 113%; in that of `COc1ccc(Nc2cc(-c3cccc(NC(C)=O)c3)ncn2)cn1` [CBK037125], 95.1%. On the same count and under the same terms, the figure for `N#Cc1ccc(-c2cc(N3CCN(C(=O)c4ccco4)CC3)ncn2)cc1` [CBK037813] is 98.2%.

For `O=C(COC(=O)c1cc(O)nc2ccccc12)c1ccccc1Cl` [CBK265524], the viability at 28.5 h, 10 µM is 95.2%. Still for that read-out and setting: in the case of `CC(C)CC(=O)N1CCN(Cc2nc3sc4c(c3c(=O)[nH]2)CCC4)CC1` [CBK305014] it was 86.4%; in that of `O=C(NCc1cccc(C(F)(F)F)c1)N1CCCCC1CO` (stereo not shown) [CBK156165], 90.7%.

`CC(NC(=O)C1CCN(Cc2cccs2)CC1)c1ccc(F)cc1` (stereo not shown) [CBK148041]: the viability at 28.5 h, 10 µM is 101%. The same measure, in the same setting: the figure for `OCCN1CC2(CCN(CCN3CCOCC3)CC2)c2ccccc21` [CBK126766] is 91.4%; for `Cc1nn(C)cc1-c1c(C#N)c(N)nc2c1CN(Cc1ccco1)CC2` [CBK306722] it is 90.4%; for `COc1ccc(C)cc1S(=O)(=O)N(CC(=O)O)c1ccc(C)c(Cl)c1` [CBK269655] it is 83.3%.

Consider `Cc1ccc(S(=O)(=O)N(C)CC(=O)N(C)Cc2ccccc2)cc1` [CBK264201], for which the viability at 28.5 h, 10 µM turned out to be 95.5%. On the same count and under the same terms, in the case of `Cc1cc(C)nc(Nc2nc3ccccc3[nH]2)n1` [CBK263539] it was 102%; in that of `CCn1cc(S(=O)(=O)NC2(c3ccc(F)cc3)CC2)c(C)n1` [CBK282837], 92.4%. Still for that read-out and setting: in the case of `Cc1cccc(CNc2nccnc2-c2cccc(N)c2)c1` [CBK038080] it was 92.4%.

With `CCCCCCC1N=NC(c2ccc(F)cc2)=CN1O` (stereo not shown) [CBK019298], the viability at 28.5 h, 10 µM was found to be 94.8%. Same read-out and setting: the figure for `O=S(=O)(Nc1nccnc1N1CCN(c2cnccn2)CC1)c1ccc(Cl)cc1` [CBK049664] is 88.1%. `OC1(C(F)(F)F)C=C(c2cccs2)ON1` (stereo not shown) [CBK006243]: the viability at 28.5 h, 10 µM amounted to 89%.

On to `O=C(Nc1cccc(I)c1)c1ccc(Oc2ccc(C(=O)Nc3cccc(I)c3)cc2)cc1` [CBK261201], for which the viability at 28.5 h, 10 µM was determined as 92.6%. Same read-out and setting: in the case of `NC(=O)CN1CCN(CCc2ccccc2)CC1` [CBK126429] it was 88.4%; in that of `CCOC(=O)c1cnn(C2CCCN(Cc3cccc(O)c3)C2)c1` (stereo not shown) [CBK304046], 100%. As for `Cc1cc(Cc2ccccc2Cl)cc(C2CCCN(CC(=O)N(C)C)C2)n1` (stereo not shown) [CBK286262], the viability at 28.5 h, 10 µM amounted to 87.6%. On the same count and under the same terms, the figure for `O=C(O)COc1ccccc1/C=N/n1c(S)nnc1-c1cccnc1` [CBK265337] is 89.9%; for `Cc1ccc(S(=O)(=O)NCCOc2nc(N(C)C)nc(N3CCOCC3)n2)cc1` [CBK266705] it is 97%; for `Cn1c(=O)n(CC(=O)Nc2ccc(F)cc2)c2cccnc21` [CBK283919] it is 101%.

For `CCOC(=O)c1csc(C2CCCN2C(=O)CC2C=CCCC2)n1` (stereo not shown) [CBK305407], the viability at 28.5 h, 10 µM came out at 97.8%.

Take `O=C1c2ccccc2C(=O)N1CSc1nnc2c3ccccc3n(CCc3ccccc3)c2n1` [CBK263891]: the viability at 28.5 h, 10 µM is 97.7%. Same read-out and setting: the figure for `COc1ccc(N2CCN(c3nccnc3-c3ccc(C(C)=O)s3)CC2)cc1OC` [CBK036968] is 109%; for `Oc1ccc(-c2cncc(-c3ccc(F)cc3)n2)cc1` [CBK123794] it is 93.7%. Still for that read-out and setting: the figure for `COc1ccc(C(=O)c2oc3cc(NC(=O)c4cccnc4)ccc3c2C)cc1` [CBK287652] is 85.1%; for `Cc1ccc(S(=O)(=O)Nc2cccc(NC(=O)c3ccco3)c2)cc1C(=O)O` [CBK296638] it is 105%. The same measure, in the same setting: in the case of `CC1=CC(C)C(CNCCN2CCNCC2)C(C)C1` (stereo not shown) [CBK262832] it was 90%; in that of `Cc1cc(C)nc(NC(=O)C2C3C=CC(C3)C2C(=O)O)c1` (stereo not shown) [CBK058843], 104%; in that of `O=C(N1CCOCC1)N1CCN(c2cncc(-c3ccc(O)cc3)n2)CC1` [CBK126946T], 96.6%.

For the compound `O=C(O)CCC(=O)Nc1ccc(OC(F)F)cc1` [CBK264222], the viability at 28.5 h, 10 µM was 99.8%. `CN1C(=O)CC2(C1=O)C(=O)N(C)c1ccc(F)cc12` (stereo not shown) [CBK075290]: the viability at 28.5 h, 10 µM is 105%. Same read-out and setting: the figure for `Cn1c(N2CC[C@H](O)C2)nc2cc(C(=O)NCc3ccsc3)ccc21` [CBK307471] is 87.5%; for `c1ccc(-c2csc3ncnc(-n4cnc5ccccc54)c23)cc1` [CBK264494] it is 109%; for `CC1(C)Cc2nc3nc(SCC(=O)c4ccc(Br)cc4)n(-c4ccccc4)c(=O)c3cc2CO1` [CBK263310] it is 91%. Still for that read-out and setting: the figure for `COc1ncc(-c2nccnc2NCc2cccs2)c(OC)n1` [CBK037318] is 95.9%; for `CCOC(=O)Nc1ccc2c(c1)N(C(=O)CCN(C)C)c1ccccc1CC2` [CBK278193C] it is 89.9%; for `CCCc1cc(C(=O)NC2CCN(Cc3cccc(F)c3)CC2)[nH]n1` [CBK282465] it is 100%. On to `COCCN1CCN(c2nc(-c3ccncc3)nc3c2CCC3)CC1` [CBK306101], for which the viability at 28.5 h, 10 µM is 95.7%. Same read-out and setting: in the case of `Cc1nnc(Sc2nc3ccccc3nc2N2CCCC2)s1` [CBK093751] it was 89.1%.

As for `CC(C)(C)CC(C)(C)NC(=O)NCCc1cccs1` [CBK038697], the viability at 28.5 h, 10 µM came out at 91.8%. In the case of `O=C(C1CCCCC1)N1CCC(c2nnc(-c3ccsc3)o2)CC1` [CBK283380], the viability at 28.5 h, 10 µM was 104%. The same measure, in the same setting: the figure for `O=C(N[C@H]1C[C@H](c2nnc(CO)n2C2CC2)C1)c1ccc(Cl)c(F)c1` [CBK307093] is 91.4%. Still for that read-out and setting: the figure for `Cc1ccccc1CNCCNCCO` [CBK278293C] is 98%; for `COc1ccccc1CC(=O)NC(CCSC)c1nnc2ccccn12` (stereo not shown) [CBK306492] it is 92.1%.

The same series, now with this note: human, hela cells, % viability, bulk resorufin, single well.
Regarding `O=C(C1CCN(S(=O)(=O)c2cccs2)CC1)N1CCC(C(=O)O)(c2ccccc2)CC1` [CBK297147], the viability at 28.5 h, 10 µM was 88%. In the case of `COc1cc(C(=O)Nc2ccc3c(c2)COC2(CCNCC2)O3)cc(OC)c1OC` [CBK091531T], the viability at 28.5 h, 10 µM came out at 92.3%.
